Measured values published in patent US20220288004A1, “TREATMENT AND PREVENTION OF AGING RELATED-DISEASE AND/OR AGING BY THE INHIBITION OF SPHINGOLIPIDS” (ECOLE POLYTECHNIQUE FEDERALE DE LAUSANNE (EPFL), priority 2019, published 2022).

Assays:
mdx mice = experiment: Transplantation of MuSCs from myriocin treated donors into cardiotoxin-injured mdx recipients; assay type: in vivo, mouse
Text: (§1) Decline in tissue regenerative potential is a major hallmark of mammalian aging, including skeletal muscle. It was next asked the question whether myriocin treatment induces functional improvement of MuSCs, boosting their regenerative capacity. MuSCs from aged mice treated or untreated with myriocin for 5 months were isolated, and transplanted into tibialis anterior (TA) muscles of recipient mice. The recipient mice were either aged (20-month-old) C57Bl/6JRj or aged (1-year-old) mdx mice, a mouse model of Duchenne muscular dystrophy lacking dystrophin protein (FIG. 4a). Before MuSC transplantation, injury was induced by cardiotoxin injection to TA of all recipient mice. […] At both 7 and 14 days after transplantation the inflammatory area was also smaller (FIG. 12a-b) in mdx recipients of MuSCs isolated from myriocin treated mice. […] Thus, transplantation of MuSCs derived from myriocin treated donors induce major morphological improvements following cardiotoxin-induced muscle injury.
Cardiotoxin-induced muscle damage and MuSC transplantation. […]
Histology. […] Microscopy images of fluorescence from muscle fibers were analyzed using the ImageJ software. Centralized nuclei percent, minimal Feret diameter and cross-sectional area in TA muscles were determined using the ImageJ software quantification of laminin, dystrophin, and DAPI-stained muscle images from VS120-S6-W slides scanner (Olympus). […] The mean cross-sectional area of muscle fibers was calculated as the average cross-sectional area of 2,000 fibers per from sample. 7-8 mouse samples per condition were used for histological quantification of donor mice. The eMyHC quantification is expressed as proportion of eMyHC positive signal over total TA cross sectional area. Following MuSC injection in CTX injected recipient mice, inflammation representing the regenerative stage of muscle was quantified by ImageJ software as proportion of inflammatory area over total area of the TA muscle cross section. The PAX7-positive cells were quantified as the average number of cells per field of more than 30 randomly chosen fields from a mouse TA. […]

aged C57Bl/6JRj mice = experiment: Transplantation of MuSCs from myriocin treated donors into cardiotoxin-injured aged C57Bl/6JRj recipients; assay type: in vivo, mouse
Text: as §1
To test whether the functional improvement of MuSCs upon myriocin treatment also translates into better muscle function of recipient mice, tests of muscle function were performed before and 7 days after MuSC transplantation.
Endurance running test. The exercise regimen on a treadmill commenced at a speed of 9 cm/s. As the mice were aged, an inclination of 0 degrees was used. Mice were considered to be exhausted, and removed from the treadmill if they received 7 or more shocks (0.2 mA) per minute for two consecutive minutes. The distance traveled and time before exhaustion were registered as maximal running distance and time.
Grip strength. Muscle strength was assessed by grip strength test. The grip strength of each mouse was measured on a pulldown grid assembly connected to a grip strength meter (Columbus Instruments). The mouse was drawn along a straight line parallel to the grip, providing peak force. The experiment was repeated three times, and the highest value was included in the analysis.
Rotarod test. The rotarod test measures muscle strength, coordination, and endurance. Mice were left undisturbed in the room for 30 min. The speed of the rotating cylinder (rotarod) increased from 0 to 40 rpm in 5 min. Each mouse had 3 trials per day for 3 consecutive days. The latency and speed the mouse reached it passive rotation or fall from the rotor was recorded, and the latency and speed of the best trial of the second day is presented.
Cardiotoxin-induced muscle damage and MuSC transplantation. MuSCs were transplanted from donor mice to recipient mice. The donor mice were aged male C57Bl/6JRj mice, whose treatment with myriocin was started at the age of 18 months. The recipient mice were either aged (18-month-old) male C57Bl/6JRj mice or 1-year-old male mdx mice. 50 μL of 20 μM Naje Mossambica mossambica cardiotoxin (Sigma) was injected intramuscularly into the tibialis anterior (TA) muscle of recipient mice before transplantation. 24 h after CTX injection, equal number (1500) of freshly isolated MuSCs from donor mice were injected intramuscularly into the TA muscle. Recipient mice were sacrificed at 7 and 14 days after transplantation.
Histology. TA muscles were harvested from anesthetized mice, and immediately embedded in Thermo Scientific™ Shandon™ Cryomatrix™ and frozen in isopentane, cooled in liquid nitrogen, for 1 min before being transferred to dry ice and stored at −80° C. 8 μm cryosections were incubated in 4% PFA for 15 min, washed three times for 10 min with PBS, incubated for antigen retrieval in pH 6.0 citrate buffer for 10 min at 95° C. (for PAX7 antibody), counterstained with DAPI, laminin (1:200, Sigma), PAX7 (1:200, DSHB, University of Iowa), dystrophin (1:100, Spring Bioscience) or eMyHC (1:50, DSHB, University of Iowa), coupled with Alexa-488 or Alexa-568 fluorochromes (Life Technology) and mounted with Dako Mounting Medium. Microscopy images of fluorescence from muscle fibers were analyzed using the ImageJ software. […]

[1] = test system: human primary myoblasts from IBM donors; experiment: Proteostat staining of IBM patient myoblasts; assay type: cell-based; conditions: 30 μM MYR for 24 h
Experimental: FIG. 16. Quantitative Proteostat signal normalized over the number of cells in human primary myoblasts from IBM donors (above) and APPSwe-expressing C2C12 myoblasts (below) decreases after treatment with 30 μM MYR for 24 h. Values are expressed as mean±s.e.m. ***P:0.001; ****P:0.0001. Differences between two groups were assessed using Student's two-tailed t-tests (error bars: 95% confidence intervals).
Cell lines from IBM patients featuring impaired proteostasis were obtained. This was validated using Proteostat staining which targets general disruption in proteostasis.

[2] = aged C57Bl/6JRj recipients of MuSCs from myriocin treated donors, 7 days
[3] = aged recipients of MuSCs from myriocin treated mice, 7 days after transplantation, change relative to baseline

SMILES: CCCCCCC(=O)CCCCCCC=CCC(O)C(O)C(N)(CO)C(=O)O (centres unmarked) [myriocin, 2-Amino-3,4-dihydroxy-2-(hydroxymethyl)-14-oxoicos-6-enoic acid]
- inflammatory area of TA (mdx mice; 7 and 14 days after transplantation): smaller
- count of PAX7+ cells in TA (mdx mice; 7 days after transplantation): elevated count
- myogenesis of dystrophin-positive fibers (mdx mice; 7 days after transplantation): stimulated myogenesis
- inflammatory area of TA (aged C57Bl/6JRj mice; aged C57Bl/6JRj recipients of MuSCs from myriocin treated donors, 7 and 14 days after injury): smaller
- count of PAX7+ cells per field and per section (aged C57Bl/6JRj mice; [2]): increased count
- embryonic myosin heavy chain (eMyHC) positive area (aged C57Bl/6JRj mice; [2]): higher
- exercise capacity (maximal running distance) (aged C57Bl/6JRj mice; [3]): improved
- grip strength (aged C57Bl/6JRj mice; [3]): improved
- latency in rotarod test (aged C57Bl/6JRj mice; [3]): increased latency
- Proteostat signal normalized over the number of cells (protein aggregates) [1]: clearing protein aggregates
- Proteostat signal normalized over the number of cells (protein aggregates) ([1]; listed as MYR): decreases
